Data taken from US8993509B2, “Method for treatment of cachexia by administering inhibitors of adipose triglyceride lipase expression or activity” (priority 2010, dated 2015).

Columns and labels:
iPLA2β = target: T1, iPLA2β (Homo sapiens, UniProt O60733); settings: cited from earlier work
T1 sequence (O60733 1-806): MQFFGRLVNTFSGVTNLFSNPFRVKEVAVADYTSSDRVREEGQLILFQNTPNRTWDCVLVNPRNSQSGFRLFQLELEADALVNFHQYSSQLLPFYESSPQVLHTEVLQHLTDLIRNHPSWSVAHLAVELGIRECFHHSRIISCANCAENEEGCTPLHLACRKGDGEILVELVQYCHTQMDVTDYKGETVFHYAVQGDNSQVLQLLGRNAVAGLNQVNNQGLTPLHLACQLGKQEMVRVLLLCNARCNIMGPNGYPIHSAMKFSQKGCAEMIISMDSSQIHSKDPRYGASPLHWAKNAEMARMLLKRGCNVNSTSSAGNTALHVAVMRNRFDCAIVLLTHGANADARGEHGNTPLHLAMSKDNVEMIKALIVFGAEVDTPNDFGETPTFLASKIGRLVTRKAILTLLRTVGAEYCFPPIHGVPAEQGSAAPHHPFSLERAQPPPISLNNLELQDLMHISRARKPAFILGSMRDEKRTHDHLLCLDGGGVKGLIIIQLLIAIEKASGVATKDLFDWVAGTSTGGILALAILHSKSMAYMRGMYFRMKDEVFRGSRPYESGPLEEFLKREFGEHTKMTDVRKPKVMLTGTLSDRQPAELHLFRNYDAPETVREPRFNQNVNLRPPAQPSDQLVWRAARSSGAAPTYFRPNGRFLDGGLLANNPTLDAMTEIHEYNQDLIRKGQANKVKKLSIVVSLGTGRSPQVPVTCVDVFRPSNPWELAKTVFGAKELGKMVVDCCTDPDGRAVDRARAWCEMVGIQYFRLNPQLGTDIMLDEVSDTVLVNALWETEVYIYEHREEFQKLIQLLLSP

ATGL [1] = target: T2, ATGL (Homo sapiens, UniProt Q96AD5); settings: expressed ATGL or native ATGL in hepatocytes; cited from earlier work
T2 sequence (Q96AD5 1-504): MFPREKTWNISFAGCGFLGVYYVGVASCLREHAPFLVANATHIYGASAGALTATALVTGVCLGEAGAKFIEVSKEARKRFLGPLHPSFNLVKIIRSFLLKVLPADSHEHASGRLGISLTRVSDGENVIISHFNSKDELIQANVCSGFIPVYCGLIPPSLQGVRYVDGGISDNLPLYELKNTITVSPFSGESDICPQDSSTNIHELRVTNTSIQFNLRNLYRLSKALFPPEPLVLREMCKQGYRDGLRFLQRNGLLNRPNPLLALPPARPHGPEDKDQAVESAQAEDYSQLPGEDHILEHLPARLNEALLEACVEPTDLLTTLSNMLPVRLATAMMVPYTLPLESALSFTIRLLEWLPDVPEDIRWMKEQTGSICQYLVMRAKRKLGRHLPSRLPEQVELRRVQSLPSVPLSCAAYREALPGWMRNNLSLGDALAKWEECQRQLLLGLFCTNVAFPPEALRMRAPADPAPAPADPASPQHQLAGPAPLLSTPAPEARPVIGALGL

iPLA2γ = target: T3, iPLA2γ (Homo sapiens, UniProt Q9NP80); settings: cited from earlier work
T3 sequence (Q9NP80 1-782): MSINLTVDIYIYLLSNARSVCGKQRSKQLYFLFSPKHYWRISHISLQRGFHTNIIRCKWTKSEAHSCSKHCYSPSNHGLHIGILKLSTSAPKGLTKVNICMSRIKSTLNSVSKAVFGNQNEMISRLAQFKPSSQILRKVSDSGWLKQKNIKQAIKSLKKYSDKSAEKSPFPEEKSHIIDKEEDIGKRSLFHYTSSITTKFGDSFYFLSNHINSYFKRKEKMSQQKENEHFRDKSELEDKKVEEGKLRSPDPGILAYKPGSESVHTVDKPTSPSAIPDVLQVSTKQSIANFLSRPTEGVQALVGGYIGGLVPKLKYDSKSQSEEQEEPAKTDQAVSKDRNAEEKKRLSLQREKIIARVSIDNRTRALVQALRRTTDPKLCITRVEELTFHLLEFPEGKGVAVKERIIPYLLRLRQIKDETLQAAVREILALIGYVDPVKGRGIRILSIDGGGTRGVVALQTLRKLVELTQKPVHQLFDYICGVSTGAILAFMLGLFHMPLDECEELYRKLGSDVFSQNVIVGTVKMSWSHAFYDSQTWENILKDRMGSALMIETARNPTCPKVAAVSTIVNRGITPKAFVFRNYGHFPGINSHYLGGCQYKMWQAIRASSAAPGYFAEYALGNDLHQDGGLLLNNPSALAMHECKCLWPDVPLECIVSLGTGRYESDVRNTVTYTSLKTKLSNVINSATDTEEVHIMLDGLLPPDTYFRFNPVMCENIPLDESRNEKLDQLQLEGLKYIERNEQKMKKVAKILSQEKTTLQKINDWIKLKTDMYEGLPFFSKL

ATGL [2] = target: T4, ATGL (Mus musculus, UniProt Q8BJ56); assay: Lipase assay (triglyceride hydrolase assay) with candidate inhibitors; format: biochemical; settings: versus control (DMSO), FIG. 9
T4 construct: The lipid-free infranatant (cytosolic fraction) was collected and, used for triacyl-glycerol (TG) hydrolase assays; from tissue; host or cells: mouse white adipose tissue, cytosolic fraction (100,000 g infranatant)
T4 sequence (Q8BJ56 1-486): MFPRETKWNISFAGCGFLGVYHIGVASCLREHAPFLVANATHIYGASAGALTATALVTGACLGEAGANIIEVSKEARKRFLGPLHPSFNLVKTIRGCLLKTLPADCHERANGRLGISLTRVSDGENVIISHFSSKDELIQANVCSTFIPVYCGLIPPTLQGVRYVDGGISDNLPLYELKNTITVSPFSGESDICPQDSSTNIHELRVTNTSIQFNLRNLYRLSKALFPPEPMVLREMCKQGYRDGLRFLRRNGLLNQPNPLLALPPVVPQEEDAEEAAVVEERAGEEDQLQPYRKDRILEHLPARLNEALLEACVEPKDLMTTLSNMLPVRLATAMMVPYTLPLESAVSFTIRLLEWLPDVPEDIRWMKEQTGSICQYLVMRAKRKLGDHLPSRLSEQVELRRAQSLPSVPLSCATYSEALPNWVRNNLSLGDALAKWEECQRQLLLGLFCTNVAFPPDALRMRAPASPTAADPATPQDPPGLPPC
Experimental: Mesenteric, retroperitoneal, omental and, gonadal white adipose tissues (WAT) of wild-type (wt), Adipose Tri-Glyceride Lipase-knockout (ATGL-ko) and, Hormone Sensitive Lipase-knockout (HSL-ko) mice were removed surgically and, washed in phosphate-buffered saline (PBS) containing 1 mM ethylenediaminetetraacetic-acid (EDTA). The tissue was homogenized in lysis buffer (0.25 M sucrose, 1 mM EDTA, 1 mM dithiothreitol, 20 μg/ml leupeptin, 2 μg/ml antipain, 1 μg/ml pepstatin, pH 7.0) using a Magna Lyser (Roche diagnostics GmbH, Mannheim, Germany). The WAT lysate was centrifuged at 100,000 g for 1 hour (h) at 4° C. The lipid-free infranatant (cytosolic fraction) was collected and, used for triacyl-glycerol (TG) hydrolase assays. The substrate for the measurement of lipase activity containing triolein and [9, 10-3H(N)-triolein] (NEN Life Science Products, Boston, Mass.) as radioactive tracer was emulsified with phosphatidylcholine/phosphatidylinositol using a conventional ultrasound sonicator. The cytosolic fractions supplemented with or, without a specific inhibitor for HSL were incubated at 37° C. for 60 min under constant shaking. The reaction was terminated by addition of 3.25 ml methanol/chloroform/heptane (10:9:7) and, 1 ml of 0.1 M potassium carbonate and, 0.1 M boric acid (pH 10.5). After centrifugation at 800 g for 20 minutes (min) the radioactivity in 1 ml of the upper phase was determined by liquid scintillation counting in a LS 6500 Multi-Purpose Scintillation Counter from Beckman Coulter Inc. (Fullerton, Calif.).
For determination of lipase activity 0.1 ml of cytosolic extracts and 0.1 ml substrate are incubated in a water bath at 37° C. for 60 min. The reaction is terminated by adding 3.25 ml of methanol/chloroform/heptane (10:9:7) and 1 ml of 0.1 M potassium carbonate, 0.1 M boric acid, pH 10.5. After centrifugation (800 g, 20 min) the radioactivity in 1 ml of the upper phase is determined by liquid scintillation counting. Neutral lipase activity is measured in 50 mM potassium phosphate buffer, pH 7.0 and 2.5% defatted BSA. The substrate for neutral TG lipase activity contained 33 nmol triolein/assay with [9,10-^3H(N)]-triolein (40.000 cpm/nmol, NEN Life Science Products) as radioactive tracer for COS-7 cells and 167 nmol/assay for 3T3-L1 adipocytes (7300 cpm/nmol). The substrates for cholesteryl esterase and retinyl esterase activity contained 10 nmol/assay of cholesteryl oleate or retinyl palmitate and the corresponding tracers cholesteryl [9,10-^3H]-oleate or retinyl [9,10-^3H(N)]-palmitate (50.000 cpm/nmol). For determination of phospholipase activity in cytosolic extracts the substrate contained 20 nmol/assay phosphatidylcholine and [dipalmitoyl-1-^14C]-phosphatidylcholine (12.000 cpm/nmol). […]

| inhibition of ATGL (ATGL activity, % control) (ATGL [2]) | SMILES | inhibition of iPLA2β (iPLA2β) | ATGL inhibition activity (ATGL [1]) | inhibition of iPLA2γ (iPLA2γ) |
| --- | --- | --- | --- | --- |
| inhibit ATGL | CCOC(=O)c1nn(-c2ccc(OCC)cc2)cc1O [Compound 9] |  |  |  |
| inhibit ATGL | CN(C)/N=C/c1ccccc1OC(=O)c1cccnc1 [Compound 7] |  |  |  |

The next lines start with the molecule.

| SMILES | inhibition of ATGL (ATGL activity, % control) (ATGL [2]) | inhibition of iPLA2β (iPLA2β) | ATGL inhibition activity (ATGL [1]) | inhibition of iPLA2γ (iPLA2γ) |
| --- | --- | --- | --- | --- |
| O=C1O/C(=C/Br)CC[C@@H]1c1cccc2ccccc12 [(R)-Bromoenol lactone] |  | inhibits | ATGL inhibition activity | inhibits |
| Oc1ccc(/C=N/N2CCN(c3ccccc3)CC2)cc1O [Compound 4] | largest degree of inhibition |  |  |  |
| COC(=O)C(O)(c1cc(C)c(O)c(C)c1)C(F)(F)F (stereo not shown) [Compound 3] | inhibit ATGL |  |  |  |
